Data from patent US7557085B2, “Metabolic-based methods for modulating gene expression” (Wisconsin Alumni Research Foundation, priority 2005, dated 2009).

Columns and labels:
[1] = tested on: hippocampal gene expression; experiment: microarray hybridization of rat hippocampus mRNA (Affymetrix Rat Array); assay type: in vivo; details: of 35,000 genes comprising the microarray
Protocol: In view of the results with BDNF and TrkB, hippocampal gene expression changes in rats treated with and without 2-DG were assessed by hybridization using microarrays (Affymetrix Rat Array (35,000 genes represented), Affymetrix, Santa Clara, Calif.). Hybridizations were performed according to the manufacturer's instructions using mRNA isolated from rat hippocampus from rats following dietary restriction or treatment with drug (2-DG). […] Genes of interest in disease states detected in these experiments include but are not limited to snail (NM_005985), MDR3/MRP3 (GenBank Accession No. M23234), MTA1 (NM_004689), DCC (NM_005215), Netrin (U75586), and β-catenin (X87838)(metastasis); BDNF (NM_170731) and TrkB (NM_006180) (neurological disorders) and atrial natriuretic peptide (ANP; NM_000907)(cardiac hypertrophy/myocardial infarction).

TrkB = experiment: QRT-PCR of hippocampal tissue from kindled rats, TrkB; assay type: in vivo, rat
Source text: Values plotted are BDNF or TrkB expression over Actin using rat hippocampal cDNA from an untreated rat for a standard curve. Specifically, mRNA was extracted from hippocampus tissue from rats treated with 2-DG or untreated control rats subjected to kindling stimulation to mimic epilepsy. […] The levels of actin mRNA were not affected by 2-DG treatment. Importantly, the differences in expression of BDNF or TrkB in the absence or presence of 2DG were present after 5 ADs in association with a large difference in AD threshold between 2DG-treated and control rats (FIG. 3 lanes 5 versus 6 and 7 versus 8).

[2] = tested on: actin (not an NRSF target); experiment: QRT-PCR of actin in JTC-19 cells; assay type: cell-based, rat; details: 1 mM 2-DG for 24 hrs
Source text: (§1) FIG. 5 are graphs showing the results of quantitative reverse-transcriptase-PCR experiments, wherein NaV1.2 is sodium type II (NaV1.2); BDNF is Brain Derived Neurotrophic Factor (BDNF) and CHRM4 is muscarinic acetylcholine receptor type 4 (CHRM4), all genes repressed by NRSE/NRSF, and actin (not an NRSF target).
(§2) Firefly luciferase measurements were normalized to co-transfected pRL-TK and expressed as fold repression (gal4 DBD/gal4-NRSF). Values are the average of at least three experiments performed in triplicate. Error bars indicate standard errors. […] In these experiments, cells were grown in the presence or absence of 1 mM 2-DG for 24 hrs, harvested and RNA subjected to QRT-PCR with primers to the NRSF target genes Sodium Type II (NaV1.2), Brain Derived Neurotrophic Factor (BDNF) and Muscarinic Acetylcholine Receptor Type 4 (CHRM4) or actin (not an NRSF target). Rat hippocampal cDNA was used to generate a standard curve and values plotted are microliter equivalents of hippocampal cDNA.

[3] = tested on: NRSF target genes Sodium Type II (NaV1.2), BDNF, CHRM4; experiment: QRT-PCR of chromosomal NRSF target genes in JTC-19 cells; assay type: cell-based, rat; details: 1 mM 2-DG for 24 hrs
Source text: as §1, §2

actin promoter = experiment: ChIP on hippocampi of rats administered 2-DG or saline, actin promoter; assay type: in vivo; details: rat hippocampi, without regard to the glycolytic state
Source text: (§3) FIG. 10I is a graph of CHIP assays performed on hippocampi from rats administered 2-DG or saline for 2 weeks and using a cocktail of anti-CtBP1 and anti-CtBP2 antibody or sham antibody and primers flanking the BDNF NRSE or actin promoter. Data is plotted as quantity of DNA specifically precipitated in picograms.
(§4) The above results predicted that CtBP would be present at the BDNF NRSF binding site in rat hippocampi and that occupancy at this site should be augmented in the presence of 2-DG. To test this prediction, ChIP assays were performed using anti-CtBP antibody on chromatin isolated from 2DG-treated rats as above. Hippocampi from rats administered 2-DG or saline for 2 weeks were subjected to ChIP with a cocktail of anti-CtBP1 and anti-CtBP2 antibody or sham antibody and primers flanking the BDNF NRSE or actin promoter. […] CtBP was not detected at the actin promoter without regard to the glycolytic state of the animal, as expected for a gene not under NRSF regulatory control.

BDNF NRSE = experiment: ChIP on hippocampi of rats administered 2-DG or saline, BDNF NRSE; assay type: in vivo, rat
Source text: FIG. 10D is a graph showing the results of CHiP assays of ˜20 kB surrounding the NRSE element in the BDNF gene. The data is plotted as the quantity of DNA specifically precipitated (pg).
FIG. 10E is a graph showing the results of CHiP assays wherein chromatin precipitated with anti-H3K9-dimethyl or sham antibody and primers flanking the BDNF NRSE. The data is plotted as the quantity of DNA specifically precipitated (pg).
FIG. 10F is a graph showing the results of CHiP assays wherein chromatin was precipitated with anti-NRSF or sham antibody and primers flanking the BDNF or actin promoter. The data is plotted as the quantity of DNA specifically precipitated (pg).
as §3
To determine whether 2-DG mediated suppression of BDNF levels was associated with a decreased level of histone H3 Lysine^9 acetylation, hippocampii from 2-DG treated or control rats were crosslinked with 1% formaldehyde and subjected to chromatin immunoprecipitation assays (ChIPs), performed as in Roopra et al.(2004, Mol Cell 14: 727-38) with an antibody specific to acetylated H3-K9. The graphs shown in FIGS. 10A through 10C show the results of experiments in which the amount (in ng) of DNA associated with nucleosomes comprising modified or unmodified H3 histone proteins was detected for an endogenous, NRSE/NRSF-regulated gene (CHRM4) in JTC-19 cells grown in the presence of 2-DG or glucose. […] However, the amount of CtBP recruited to CHRM4, the NRSF target gene, increased 5-fold in the presence of 2-DG.
ChIP assays also were performed over 20 Kb spanning the BDNF NRSE to detect deacetylated histone H3K9. In these experiments, hippocampi from rats administered 2-DG or saline for 2 weeks were subjected to CHIP with anti-H3K9-acetyl (obtained from BD-Pharmigen) or sham antibody and primers flanking BDNF NRSE or sequence 2, 5 or 10 Kb up- or downstream from the BDNF NRSE element.
Alternatively, when chromatin from the above experiments was precipitated with anti-NRSF or sham antibody and primers flanking the BDNF NRSE or actin promoter, specific binding was found at the NSRE element and not associated with the actin promoter.
as §4

## O=CC[C@@H](O)[C@H](O)[C@H](O)CO [2-DG, 2-deoxy-D-glucose]
[1]
  number of genes down-regulated by drug treatment: 349
  number of genes transcriptionally upregulated by drug treatment: 241
TrkB; QRT-PCR, expression over actin, FIG. 3 lanes 3 versus 4
  hippocampal TrkB expression compared to control animals: significantly reduced
TrkB; after 5 ADs
  difference in expression of TrkB in absence or presence of 2DG: present
TrkB; rats that experienced 3 Class V seizures
  TrkB expression, 2DG-treated versus control rats: no difference in expression
[2]
  actin levels: unaffected
[3]
  expression of chromosomal NRSF target genes: repressed
Actin promoter
  CtBP at the actin promoter: not detected
BDNF NRSE; anti-H3K9-dimethyl antibody, rat hippocampi
  H3K9 methylation status at the BDNF NRSE: robust increase
BDNF NRSE; anti-NRSF antibody, rat hippocampi
  NRSF binding to the BDNF NRSE: not affected
BDNF NRSE; drug treatment, rat hippocampus
  associated histone acetylation levels for BDNF DNA: lowered
BDNF NRSE; rats administered 2-DG or saline for 2 weeks, anti-CtBP1 and anti-CtBP2 cocktail
  CtBP occupancy at the BDNF NRSE: significantly increased
BDNF NRSE; rats administered 2-DG or saline for 2 weeks, only amplicon over 20 Kb to change
  H3K9 acetylation at the NRSE element compared to controls: marked reduction
